Reference: the supplement of paper PMC13380429

Tests used:
[1] = system: Vero E6; assay: drug sensitivity score (DSS) for viability; higher = more toxic; extreme values may be limits of the assay; settings: 72 h
[2] = system: Caco-2; assay: as above; settings: 72 h
[3] = system: U2OS; assay: as above; settings: 72 h
[4] = system: HepG2; assay: as above; settings: 72 h
[5] = system: Calu-3; assay: as above; settings: 72 h
[6] = system: Vero E6; assay: cell viability relative to DMSO; higher = less toxic; settings: 72 h
[7] = system: Caco-2; assay: as above; settings: 72 h
[8] = system: U2OS; assay: as above; settings: 72 h
[9] = system: HepG2; assay: as above; settings: 72 h
[10] = system: Calu-3; assay: as above; settings: 72 h
[11] = system: A549-ACE2; assay: drug-induced phospholipidosis relative to tamoxifen; higher = more phospholipidosis
[12] = system: A549-ACE2 infected with SARS-CoV-2; assay: morphology score (similarity to uninfected cells); higher = more like uninfected cells; settings: 24 h
[13] = system: Vero E6; assay: relative viability EC50 (midpoint between 100% and the lowest measured viability); higher = less toxic; settings: 72 h
[14] = system: Caco-2; assay: as above; settings: 72 h
[15] = system: U2OS; assay: as above; settings: 72 h
[16] = system: HepG2; assay: as above; settings: 72 h
[17] = system: Calu-3; assay: as above; settings: 72 h
[18] = system: A549-ACE2 infected with SARS-CoV-2; assay: cell count relative to DMSO; higher = less toxic; settings: 24 h
[19] = system: A549-ACE2 infected with SARS-CoV-2; assay: SARS-CoV-2 infection rate relative to DMSO; higher = more infection; settings: 24 h

COc1cc2c(cc1OC)-c1c/c(=N\c3c(C)cc(C)cc3C)n(C)c(=O)n1CC2 [trequinsin]
Settings | drug sensitivity score | relative viability EC50 [µM]
[1] | 0 | –
[2] | 0 | –
[3] | 0 | –
[4] | 0.9 | –
[5] | 0.2 | –
[13] | – | > 10
[14] | – | > 10
[15] | – | > 10
[16] | – | > 10
[17] | – | > 10

Settings | SARS-CoV-2 infection rate, [19] [%] | cell count, [18] [%] | cell viability, [6] [%] | cell viability, [7] [%] | cell viability, [8] [%] | cell viability, [9] [%] | cell viability, [10] [%] | morphology score, [12]
1 nM | – | – | 92.2 | 97.5 | 96.8 | 102 | 102 | –
10 nM | – | – | 97.1 | 91.9 | 99.7 | 94.4 | 89.5 | –
100 nM | – | – | 97 | 97.2 | 97.6 | 102 | 94.3 | –
0.3 µM | 97 | 100 | – | – | – | – | – | 0.06
1000 nM | – | – | 92.7 | 97 | 99.6 | 92.8 | 100 | –
3 µM | 93 | 103 | – | – | – | – | – | 0.26
10000 nM | – | – | 89.1 | 86.4 | 95.5 | 84.1 | 85 | –
10 µM | 59 | 111 | – | – | – | – | – | 0.67
30 µM | 19 | 110 | – | – | – | – | – | 0.75

drug-induced phospholipidosis [%], [11]
Settings | 0.3 µM | 0.833333 µM | 3.33333 µM | 6.66667 µM | 10 µM | 30 µM
24 h | 3.52 | 0.24 | 10.1 | 3.08 | 1.51 | 20.8
48 h | 3.24 | 1.48 | 5.48 | 3.57 | 5.51 | 32.1
72 h | 4.95 | 1.02 | 3.84 | 4.01 | 6.79 | –

CO[C@H]1C[C@H](O[C@@H]2/C(C)=C/C[C@@H]3C[C@@H](C[C@]4(CC[C@H](C)[C@@H](C5CCCCC5)O4)O3)OC(=O)[C@@H]3C=C(C)/C(=N/O)[C@H]4OC/C(=C\C=C\[C@@H]2C)[C@]43O)O[C@@H](C)[C@@H]1O [selamectin]
Settings | drug sensitivity score | relative viability EC50 [µM]
[1] | 0 | –
[2] | 2.5 | –
[3] | 0 | –
[4] | 0.1 | –
[5] | 0 | –
[13] | – | > 10
[14] | – | > 10
[15] | – | > 10
[16] | – | > 10
[17] | – | > 10

Settings | SARS-CoV-2 infection rate, [19] [%] | cell count, [18] [%] | cell viability, [6] [%] | cell viability, [7] [%] | cell viability, [8] [%] | cell viability, [9] [%] | cell viability, [10] [%] | morphology score, [12]
1 nM | – | – | 104 | 112 | 103 | 113 | 101 | –
10 nM | – | – | 104 | 119 | 98 | 120 | 106 | –
100 nM | – | – | 104 | 105 | 103 | 117 | 96.2 | –
0.3 µM | 103 | 96 | – | – | – | – | – | -0.14
1000 nM | – | – | 107 | 79.9 | 98.8 | 121 | 104 | –
3 µM | 79 | 105 | – | – | – | – | – | 0.43
10000 nM | – | – | 86.7 | 86.5 | 90.4 | 84.1 | 91.2 | –
10 µM | 48 | 93 | – | – | – | – | – | 0.75
30 µM | 15 | 111 | – | – | – | – | – | 0.7

CNC(=O)c1cc(Oc2ccc(NC(=O)Nc3cc(C(C)(C)C)nn3-c3ccc4ncccc4c3)c(F)c2)ccn1 [rebastinib]
Settings | drug sensitivity score | relative viability EC50 [µM]
[1] | 4.3 | –
[2] | 3.1 | –
[3] | 4.4 | –
[4] | 13.3 | –
[5] | 4.6 | –
[13] | – | 3.74
[14] | – | 3.94
[15] | – | 3.62
[16] | – | 0.638
[17] | – | 1.94

Settings | SARS-CoV-2 infection rate, [19] [%] | cell count, [18] [%] | cell viability, [6] [%] | cell viability, [7] [%] | cell viability, [8] [%] | cell viability, [9] [%] | cell viability, [10] [%] | morphology score, [12]
1 nM | – | – | 98.2 | 98.4 | 97.9 | 104 | 100 | –
10 nM | – | – | 96.8 | 89.9 | 96.4 | 102 | 97.5 | –
100 nM | – | – | 102 | 95.4 | 97 | 108 | 105 | –
0.1 µM | 97 | 104 | – | – | – | – | – | 0.31
0.3 µM | 92 | 103 | – | – | – | – | – | 0.24
1000 nM | – | – | 112 | 114 | 108 | 28.6 | 90.8 | –
1 µM | 92 | 102 | – | – | – | – | – | 0.22
3 µM | 95 | 96 | – | – | – | – | – | 0.12
10000 nM | – | – | 9.9 | 30 | 9.6 | 6.1 | 42.6 | –

drug-induced phospholipidosis [%], [11]
Settings | 0.3 µM | 0.833333 µM | 3.33333 µM | 6.66667 µM | 10 µM
24 h | -0.9 | -2.36 | -1.54 | -1.91 | -2.66
48 h | -0.69 | -2.5 | -1.43 | -0.4 | 0.77
72 h | 0.586 | -3.51 | -2.2 | 1.53 | 5.87

CC(=O)OC[C@H]1O[C@@H]([S-])[C@H](OC(C)=O)[C@@H](OC(C)=O)[C@@H]1OC(C)=O.CCP(CC)CC.[Au+] [auranofin]
Settings | drug sensitivity score | relative viability EC50 [µM]
[1] | 7.5 | –
[2] | 11 | –
[3] | 16.9 | –
[4] | 9.7 | –
[5] | 4.5 | –
[13] | – | 2.19
[14] | – | 1.15
[15] | – | 0.383
[16] | – | 1.46
[17] | – | 3.86

Settings | SARS-CoV-2 infection rate, [19] [%] | cell count, [18] [%] | cell viability, [6] [%] | cell viability, [7] [%] | cell viability, [8] [%] | cell viability, [9] [%] | cell viability, [10] [%] | morphology score, [12]
1 nM | – | – | 92.1 | 99.9 | 101 | 90.6 | 100 | –
10 nM | – | – | 94.2 | 94.2 | 98.2 | 99.4 | 92.8 | –
100 nM | – | – | 93.6 | 101 | 98.5 | 102 | 106 | –
0.1 µM | 96 | 98 | – | – | – | – | – | 0.03
0.3 µM | 91 | 103 | – | – | – | – | – | 0.11
1000 nM | – | – | 88.1 | 58.6 | 7.5 | 72.1 | 117 | –
1 µM | 86 | 98 | – | – | – | – | – | 0.34
3 µM | 64 | 90 | – | – | – | – | – | 0.39
10000 nM | – | – | 0 | 0 | 0 | -0.1 | 1.2 | –

drug-induced phospholipidosis [%], [11]
Settings | 0.3 µM | 0.833333 µM | 3.33333 µM | 6.66667 µM
24 h | 0.97 | -3.21 | 5.44 | 2.76
48 h | 3.04 | -1.45 | 6.04 | –
72 h | 2.56 | 0.634 | – | –
